Series [1] has as its target Voltage-dependent T-type calcium channel subunit alpha-1H (Homo sapiens, UniProt O95180). The series is described as follows: Channel blocking activity at recombinant human CaV 3.2 channel expressed in HEK293 cells assessed as inhibition of Ca2+ flux preincubated for 3 mins followed by CaCl2 addition by fluo-4 dye-based FLIPR assay. It counts as cell-based. (A change in cytosolic calcium serves as a functional read-out for many receptors and channels.)

The nature of series [2]: Intrinsic clearance in human liver microsomes at 1 uM up to 15 mins in presence of NADPH by LC-MS-MS analysis. It counts as ADME. Particulars: read-out: CLH. (Liver microsomes are a subcellular fraction often used to study metabolism.)
A short description of series [3]: Solubility of the compound at pH 7. The class given is physicochemical. The conditions noted are these: buffer.
The target in series [4] is Voltage-dependent T-type calcium channel subunit alpha-1I (Homo sapiens, UniProt Q9P0X4). Put plainly: Channel blocking activity at recombinant human CaV 3.3 channel expressed in HEK293 cells assessed as inhibition of Ca2+ flux preincubated for 3 mins followed by CaCl2 addition by fluo-4 dye-based FLIPR assay. The class given is cell-based.
Series [5] addresses Voltage-dependent T-type calcium channel subunit alpha-1G (Homo sapiens, UniProt O43497). Put plainly: Channel blocking activity at recombinant human CaV 3.1 channel expressed in HEK293 cells assessed as inhibition of Ca2+ flux preincubated for 3 mins followed by CaCl2 addition by fluo-4 dye-based FLIPR assay. The class given is cell-based.
Series [6] is described as follows: Intrinsic clearance in Wistar rat liver microsomes at 1 uM up to 15 mins in presence of NADPH by LC-MS-MS analysis. It counts as ADME. The conditions noted are these: read-out: CLH.

≈ marks a conversion by molar mass, not a printed value.

Sequence of Voltage-dependent T-type calcium channel subunit alpha-1G (O43497 whole entry): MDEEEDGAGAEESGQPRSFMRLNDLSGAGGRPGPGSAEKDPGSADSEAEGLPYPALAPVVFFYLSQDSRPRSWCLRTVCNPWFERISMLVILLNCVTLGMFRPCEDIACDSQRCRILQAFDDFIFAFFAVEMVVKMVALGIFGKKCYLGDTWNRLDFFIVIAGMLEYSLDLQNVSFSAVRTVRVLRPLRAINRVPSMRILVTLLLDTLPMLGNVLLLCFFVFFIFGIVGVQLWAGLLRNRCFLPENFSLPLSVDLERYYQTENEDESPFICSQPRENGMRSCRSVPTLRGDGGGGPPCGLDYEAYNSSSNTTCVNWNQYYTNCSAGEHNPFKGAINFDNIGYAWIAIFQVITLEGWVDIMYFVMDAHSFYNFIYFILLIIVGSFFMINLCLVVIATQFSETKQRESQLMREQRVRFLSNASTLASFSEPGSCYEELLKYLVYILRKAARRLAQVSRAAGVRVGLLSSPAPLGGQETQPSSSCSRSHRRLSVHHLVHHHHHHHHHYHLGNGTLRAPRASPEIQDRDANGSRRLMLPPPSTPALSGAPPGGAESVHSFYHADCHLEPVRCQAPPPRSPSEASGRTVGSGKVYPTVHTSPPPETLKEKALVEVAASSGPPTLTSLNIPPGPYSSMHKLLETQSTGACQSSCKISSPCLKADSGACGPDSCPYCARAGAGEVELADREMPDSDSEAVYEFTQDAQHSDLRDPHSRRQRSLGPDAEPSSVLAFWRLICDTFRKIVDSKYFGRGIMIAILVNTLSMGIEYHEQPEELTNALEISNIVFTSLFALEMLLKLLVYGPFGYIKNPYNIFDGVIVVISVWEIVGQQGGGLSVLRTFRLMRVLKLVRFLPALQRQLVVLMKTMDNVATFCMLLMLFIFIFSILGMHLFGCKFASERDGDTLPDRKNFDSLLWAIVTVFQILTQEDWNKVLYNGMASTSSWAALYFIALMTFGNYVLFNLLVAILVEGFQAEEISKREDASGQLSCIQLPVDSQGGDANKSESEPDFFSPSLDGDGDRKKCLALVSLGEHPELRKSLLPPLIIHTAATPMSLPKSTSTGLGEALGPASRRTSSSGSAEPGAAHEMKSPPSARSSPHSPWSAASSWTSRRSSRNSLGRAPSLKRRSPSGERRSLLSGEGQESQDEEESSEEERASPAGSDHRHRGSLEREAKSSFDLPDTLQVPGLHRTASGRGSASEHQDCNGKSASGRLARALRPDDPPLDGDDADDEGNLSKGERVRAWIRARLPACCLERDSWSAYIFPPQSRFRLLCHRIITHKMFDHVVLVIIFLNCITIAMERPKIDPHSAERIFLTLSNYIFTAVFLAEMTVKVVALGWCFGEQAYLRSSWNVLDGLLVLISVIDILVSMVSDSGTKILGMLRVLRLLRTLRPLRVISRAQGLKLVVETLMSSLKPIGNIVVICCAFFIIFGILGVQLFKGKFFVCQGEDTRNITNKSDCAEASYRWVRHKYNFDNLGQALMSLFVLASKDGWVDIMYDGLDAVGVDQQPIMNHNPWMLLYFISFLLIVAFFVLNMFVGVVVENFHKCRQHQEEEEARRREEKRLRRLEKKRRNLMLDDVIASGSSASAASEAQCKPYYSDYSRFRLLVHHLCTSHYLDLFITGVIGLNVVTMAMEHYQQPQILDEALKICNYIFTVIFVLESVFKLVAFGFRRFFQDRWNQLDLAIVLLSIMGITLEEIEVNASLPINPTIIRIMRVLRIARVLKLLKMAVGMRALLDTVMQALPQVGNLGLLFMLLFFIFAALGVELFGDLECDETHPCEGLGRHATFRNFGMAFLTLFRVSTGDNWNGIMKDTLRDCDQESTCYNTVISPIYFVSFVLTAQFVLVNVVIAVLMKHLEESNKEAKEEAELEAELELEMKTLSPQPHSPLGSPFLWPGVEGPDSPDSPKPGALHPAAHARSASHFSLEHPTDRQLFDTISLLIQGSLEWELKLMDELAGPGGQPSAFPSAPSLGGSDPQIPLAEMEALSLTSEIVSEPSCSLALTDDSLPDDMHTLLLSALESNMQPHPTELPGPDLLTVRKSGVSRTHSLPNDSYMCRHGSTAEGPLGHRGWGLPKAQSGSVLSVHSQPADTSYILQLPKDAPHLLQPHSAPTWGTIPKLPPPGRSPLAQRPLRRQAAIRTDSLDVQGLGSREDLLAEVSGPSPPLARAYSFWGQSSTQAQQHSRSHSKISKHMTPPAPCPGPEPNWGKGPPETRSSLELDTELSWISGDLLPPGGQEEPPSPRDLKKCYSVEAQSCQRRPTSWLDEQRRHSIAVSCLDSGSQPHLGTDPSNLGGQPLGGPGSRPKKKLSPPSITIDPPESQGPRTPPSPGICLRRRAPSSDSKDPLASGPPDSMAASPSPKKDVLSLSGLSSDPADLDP
Sequence of Voltage-dependent T-type calcium channel subunit alpha-1H (O95180 whole entry): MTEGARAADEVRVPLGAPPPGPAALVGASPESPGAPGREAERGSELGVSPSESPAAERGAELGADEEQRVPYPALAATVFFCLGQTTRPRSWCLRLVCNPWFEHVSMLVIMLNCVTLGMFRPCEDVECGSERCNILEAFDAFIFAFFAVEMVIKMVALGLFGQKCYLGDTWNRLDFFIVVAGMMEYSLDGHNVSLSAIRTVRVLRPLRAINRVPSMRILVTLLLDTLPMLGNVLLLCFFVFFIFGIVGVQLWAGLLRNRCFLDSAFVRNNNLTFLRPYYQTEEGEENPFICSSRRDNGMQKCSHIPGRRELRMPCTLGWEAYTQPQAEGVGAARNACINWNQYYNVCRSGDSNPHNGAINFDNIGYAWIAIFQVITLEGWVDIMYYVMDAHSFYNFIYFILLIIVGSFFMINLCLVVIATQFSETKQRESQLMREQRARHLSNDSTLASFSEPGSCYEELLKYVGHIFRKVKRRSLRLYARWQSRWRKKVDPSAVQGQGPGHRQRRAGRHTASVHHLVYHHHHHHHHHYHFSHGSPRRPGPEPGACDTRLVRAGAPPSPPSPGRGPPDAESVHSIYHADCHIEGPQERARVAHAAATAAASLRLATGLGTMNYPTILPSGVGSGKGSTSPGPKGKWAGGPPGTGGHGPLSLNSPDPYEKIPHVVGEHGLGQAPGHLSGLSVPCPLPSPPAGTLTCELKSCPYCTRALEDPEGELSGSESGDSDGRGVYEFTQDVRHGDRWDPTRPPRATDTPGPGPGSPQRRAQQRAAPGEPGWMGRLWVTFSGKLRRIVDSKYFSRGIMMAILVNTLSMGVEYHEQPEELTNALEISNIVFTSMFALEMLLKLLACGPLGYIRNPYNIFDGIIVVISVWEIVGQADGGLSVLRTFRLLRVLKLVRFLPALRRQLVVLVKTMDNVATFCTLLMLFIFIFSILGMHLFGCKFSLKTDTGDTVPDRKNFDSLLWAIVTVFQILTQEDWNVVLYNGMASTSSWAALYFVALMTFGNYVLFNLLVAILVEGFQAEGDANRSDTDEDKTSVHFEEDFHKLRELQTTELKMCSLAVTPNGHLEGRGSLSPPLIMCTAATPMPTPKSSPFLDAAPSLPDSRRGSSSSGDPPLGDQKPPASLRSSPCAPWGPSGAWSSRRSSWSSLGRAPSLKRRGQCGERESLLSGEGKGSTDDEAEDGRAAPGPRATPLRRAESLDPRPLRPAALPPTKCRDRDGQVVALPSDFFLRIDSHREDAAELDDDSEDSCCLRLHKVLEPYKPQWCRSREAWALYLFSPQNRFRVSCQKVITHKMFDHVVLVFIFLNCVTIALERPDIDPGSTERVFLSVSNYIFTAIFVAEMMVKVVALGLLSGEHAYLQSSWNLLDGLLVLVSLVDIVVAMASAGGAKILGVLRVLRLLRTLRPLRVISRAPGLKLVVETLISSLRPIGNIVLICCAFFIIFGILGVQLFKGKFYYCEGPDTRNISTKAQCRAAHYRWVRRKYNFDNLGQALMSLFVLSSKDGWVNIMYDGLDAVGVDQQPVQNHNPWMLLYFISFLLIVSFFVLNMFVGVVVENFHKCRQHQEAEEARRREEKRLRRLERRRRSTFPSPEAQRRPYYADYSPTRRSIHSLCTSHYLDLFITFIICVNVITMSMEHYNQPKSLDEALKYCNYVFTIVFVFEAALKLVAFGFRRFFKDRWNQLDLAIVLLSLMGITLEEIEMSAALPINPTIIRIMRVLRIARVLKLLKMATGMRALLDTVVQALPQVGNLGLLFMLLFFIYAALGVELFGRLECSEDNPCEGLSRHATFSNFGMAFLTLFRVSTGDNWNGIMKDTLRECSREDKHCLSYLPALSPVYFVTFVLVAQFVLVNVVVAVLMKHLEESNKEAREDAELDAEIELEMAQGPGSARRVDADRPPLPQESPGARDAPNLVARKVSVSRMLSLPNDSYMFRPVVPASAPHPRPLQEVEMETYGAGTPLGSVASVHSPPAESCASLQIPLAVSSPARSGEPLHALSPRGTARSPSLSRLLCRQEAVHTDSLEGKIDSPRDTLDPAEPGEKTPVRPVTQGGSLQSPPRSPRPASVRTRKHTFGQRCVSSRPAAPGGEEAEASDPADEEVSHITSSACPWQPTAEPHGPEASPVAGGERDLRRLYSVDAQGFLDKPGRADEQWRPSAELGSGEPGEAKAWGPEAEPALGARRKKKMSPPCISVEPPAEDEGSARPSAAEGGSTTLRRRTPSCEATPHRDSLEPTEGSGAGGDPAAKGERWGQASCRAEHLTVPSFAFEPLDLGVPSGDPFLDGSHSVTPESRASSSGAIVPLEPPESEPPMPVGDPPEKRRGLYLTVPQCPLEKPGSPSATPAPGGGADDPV

As to `C[C@@H]1CN(Cc2ccccc2)c2ccccc2[C@H](C)N1C(=O)Cc1cncs1` (racemic), the results for the IC50 in series [1], in series [4] and in series [5] were 55 nM, 6 nM and 34 nM, respectively. The microsomal CLint at 1 µM in series [2] is > 1250 µL/min/mg. This molecule gave a solubility in series [3] of 21 to 39 µg/mL (≈ 53.6 to 99.6 µM).
For `C[C@@H]1CN(Cc2ccccc2)c2ccccc2[C@H](C)N1C(=O)Nc1cccnc1` (racemic), in that order: 61 nM, 14 nM, 42 nM, > 1250 µL/min/mg and 21 to 39 µg/mL (≈ 54.3 to 101 µM).
Consider `C[C@@H]1CN(CCOC(C)(C)C)c2ccccc2[C@H](C)N1C(=O)Nc1cccnc1` (racemic), for which the figures for the concentration for half-maximal inhibition (IC50) in series [1], in series [4] and in series [5] were 91 nM, 23 nM and 108 nM, respectively. Further, the microsomal CLint at 1 µM in series [2] is 1230 µL/min/mg. This molecule came in with a solubility in series [3] of 81 µg/mL (≈ 204 µM).
On to `[2H]C([2H])(c1ccccc1)N1C[C@@H](C)N(C(=O)Nc2cccnc2)[C@@H](C)c2ccncc21` (racemic), for which the IC50 in series [1] came out at 815 nM; in series [4], 148 nM; in series [5], 441 nM. Also, the microsomal CLint at 1 µM in series [2] was 59 µL/min/mg; in series [6], 855 µL/min/mg.
For `COc1ccc(CNC(=O)N2[C@H](C)CN(Cc3ccccc3)c3cnccc3[C@@H]2C)cc1` (racemic), in that order: 48 nM, 12 nM, 79 nM, 189 µL/min/mg and 1140 µL/min/mg.
The like results for `C[C@@H]1CN(Cc2ccccc2F)c2cnccc2[C@H](C)N1C(=O)NCc1ccccc1` (racemic) were, in that order, 95 nM, 31 nM, 47 nM, 179 µL/min/mg and > 1250 µL/min/mg.
For the molecule `C[C@@H]1CN(Cc2ccccc2)c2ccccc2[C@H](C)N1C(=O)N1CCOCC1` (racemic), the IC50 is 58 nM in series [1], 9 nM in series [4] and 26 nM in series [5]. The microsomal CLint at 1 µM in series [2] was > 1250 µL/min/mg. In series [3], this molecule came in with a solubility of 21 to 39 µg/mL (≈ 55.3 to 103 µM).
Take `C[C@@H]1CN(Cc2ccccc2)c2nc(Cl)ccc2[C@H](C)N1C(=O)NCc1ccccc1` (racemic): the IC50 in series [1] is 36 nM; in series [4] it was 22 nM; in series [5] it was 16 nM. Besides, the microsomal CLint at 1 µM in series [2] is 1000 µL/min/mg.
Consider `C[C@@H]1CN(Cc2ccccc2)c2cnccc2[C@H](C)N1C(=O)Nc1cccnc1` (racemic), for which the 50% inhibitory concentration (IC50) in series [1] came to 860 nM; in series [4], 306 nM; in series [5], 360 nM. The microsomal CLint at 1 µM in series [2] amounted to 93 µL/min/mg; in series [6], 562 µL/min/mg.
Regarding `C[C@@H]1CN(Cc2ccccc2)c2cccc(F)c2[C@H](C)N1C(=O)CCc1cccnc1` (racemic), the 50% inhibitory concentration (IC50) in series [1] came out at 52 nM; in series [4], 17 nM; in series [5] it was 47 nM. Further, in series [2], the microsomal CLint at 1 µM is 562 µL/min/mg.
As for `C[C@@H]1CN(Cc2ccccc2)c2ccccc2CN1C(=O)NCc1ccccc1` (racemic), the half-maximal inhibitory concentration (IC50) amounted to 141 nM in series [1], 26 nM in series [4] and 102 nM in series [5]. Also, in series [2], the microsomal CLint at 1 µM was > 1250 µL/min/mg.
The like results for `C[C@@H]1CN(Cc2cnc(C(F)(F)F)s2)c2ccccc2[C@H](C)N1C(=O)Nc1cccnc1` (racemic) were, in that order, 42 nM, 33 nM, 33 nM and > 1250 µL/min/mg.
On to `C[C@@H]1CN(Cc2ccccc2)c2cnccc2[C@H](C)N1C(=O)CCc1ccc(F)cc1` (racemic), for which the concentration for half-maximal inhibition (IC50) in series [1] is 225 nM; in series [4], 25 nM; in series [5] it was 196 nM. The microsomal CLint at 1 µM was 907 µL/min/mg in series [2] and > 1250 µL/min/mg in series [6].
For `C[C@@H]1CN(Cc2cccnc2F)c2ccccc2[C@H](C)N1C(=O)NCc1ccccc1` (racemic), the IC50 in series [1] came to 49 nM; in series [4], 10 nM; in series [5] it was 53 nM. Besides, the microsomal CLint at 1 µM in series [2] was > 1250 µL/min/mg.
Turning to `COc1ccc(CNC(=O)N2[C@H](C)CN(Cc3ccc(C(F)(F)F)o3)c3cnccc3[C@@H]2C)cc1` (racemic), the IC50 was found to be 24 nM in series [1], 11 nM in series [4] and 13 nM in series [5]. In addition, the microsomal CLint at 1 µM in series [2] was 119 µL/min/mg; in series [6] it was 447 µL/min/mg.
As to `CC(C)CCN1C[C@@H](C)N(C(=O)CCc2cccnc2)[C@@H](C)c2ccccc21` (racemic), the half-inhibitory concentration (IC50) in series [1] was determined as 62 nM; in series [4], 13 nM; in series [5], 29 nM. Moreover, in series [2], the microsomal CLint at 1 µM worked out at 412 µL/min/mg.
For `C[C@@H]1CN(Cc2ccccc2)c2cccc(F)c2[C@H](C)N1C(=O)Nc1cccnc1` (racemic), in that order: 52 nM, 10 nM, 20 nM and 628 µL/min/mg.
Turning to `C[C@@H]1CN(Cc2ccc(F)c(F)c2)c2ccccc2[C@H](C)N1C(=O)Nc1cccnc1` (racemic), the IC50 is 18 nM in series [1], 6 nM in series [4] and 13 nM in series [5]. In series [2], the microsomal CLint at 1 µM was > 1250 µL/min/mg.
The like results for `C[C@@H]1CN(Cc2ccccc2)c2cc(OCC(F)(F)F)ccc2[C@H](C)N1C(=O)Nc1cccnc1` (racemic) were, in that order, 790 nM, 3560 nM, 187 nM and > 1250 µL/min/mg.
`C[C@@H]1CN(Cc2ccc(C(F)(F)F)o2)c2cnccc2[C@H](C)N1C(=O)NCc1ccccc1` (racemic): the figures for the concentration for half-maximal inhibition (IC50) in series [1], in series [4] and in series [5] were 44 nM, 10 nM and 37 nM, respectively. The results for the microsomal CLint at 1 µM in series [2] and in series [6] were 247 µL/min/mg and 1180 µL/min/mg, respectively.
In the case of `C[C@@H]1CN(Cc2ccccc2)c2ccccc2[C@H](C)N1C(=O)NC1COC1` (racemic), the IC50 was 61 nM in series [1], 12 nM in series [4] and 26 nM in series [5]. Also, the microsomal CLint at 1 µM in series [2] worked out at 539 µL/min/mg. This molecule also displayed a solubility in series [3] of 148 µg/mL (≈ 405 µM).
For `CC(C)CCN1C[C@@H](C)N(C(=O)CCc2cccnc2)[C@@H](C)c2c(F)cccc21` (racemic), the figures for the IC50 in series [1], in series [4] and in series [5] were 66 nM, 52 nM and 45 nM, respectively. In addition, in series [2], the microsomal CLint at 1 µM was determined as 357 µL/min/mg.
Take `C[C@@H]1CN(Cc2cccc(F)c2)c2ccccc2[C@H](C)N1C(=O)Nc1cccnc1` (racemic): the half-inhibitory concentration (IC50) in series [1] turned out to be 14 nM; in series [4] it was 5 nM; in series [5] it was 8 nM. In addition, in series [2], the microsomal CLint at 1 µM was > 1250 µL/min/mg.
The like results for `C[C@@H]1CN(Cc2ccccc2)c2cc(F)ccc2[C@H](C)N1C(=O)Nc1cccnc1` (racemic) were, in that order, 12 nM, 4 nM, 6 nM and > 1250 µL/min/mg.
For `C[C@H]1c2ccccc2N(Cc2ccccc2)CCN1C(=O)NCc1ccccc1` (racemic), in that order: 241 nM, 164 nM, 193 nM and > 1250 µL/min/mg.
Regarding `[2H]C([2H])(c1ccccc1)N1C[C@@H](C)N(C(=O)NCc2ccccc2)[C@@H](C)c2ccncc21` (racemic), the half-maximal inhibitory concentration (IC50) in series [1] stood at 230 nM; in series [4], 15 nM; in series [5], 260 nM. Besides, the microsomal CLint at 1 µM is 186 µL/min/mg in series [2] and > 1250 µL/min/mg in series [6].
Turning to `C[C@@H]1CN(Cc2ccc(F)cc2)c2ccccc2[C@H](C)N1C(=O)Nc1cccnc1` (racemic), the IC50 was 31 nM in series [1], 7 nM in series [4] and 25 nM in series [5]. The microsomal CLint at 1 µM in series [2] was > 1250 µL/min/mg.
For `C[C@@H]1CN(Cc2cnc(C(F)(F)F)s2)c2ccccc2[C@H](C)N1C(=O)NCc1ccccc1` (racemic), in that order: 15 nM, 6 nM, 13 nM and > 1250 µL/min/mg.
The like results for `C[C@@H]1CN(Cc2ccccc2)c2ncc(F)cc2[C@H](C)N1C(=O)NCc1ccccc1` (racemic) were, in that order, 95 nM, 15 nM, 65 nM and 837 µL/min/mg.
For the molecule `C[C@H]1CN(Cc2ccccc2)c2ccccc2[C@H](C)N1C(=O)NCc1ccccc1` (racemic), the IC50 in series [1] worked out at 340 nM; in series [4] it was 95 nM; in series [5] it was 279 nM. The microsomal CLint at 1 µM in series [2] is > 1250 µL/min/mg.
For `C[C@@H]1CN(Cc2ccccc2)c2c(F)cccc2[C@H](C)N1C(=O)Nc1cccnc1` (racemic), in that order: 205 nM, 17 nM, 178 nM and 720 µL/min/mg.
The like results for `COc1ccc(CN2C[C@@H](C)N(C(=O)NCc3ccccc3)[C@@H](C)c3ccccc32)cn1` (racemic) were, in that order, 33 nM, 10 nM, 45 nM and > 1250 µL/min/mg.
With `C[C@@H]1CN(Cc2ccccc2)c2ccccc2[C@H](C)N1C(=O)CCc1cccnc1` (racemic), the IC50 amounted to 38 nM in series [1], 10 nM in series [4] and 31 nM in series [5]. Moreover, the microsomal CLint at 1 µM in series [2] was > 1250 µL/min/mg.
Consider `C[C@@H]1CN(Cc2ccccc2)c2ccc(F)cc2[C@H](C)N1C(=O)Nc1cccnc1` (racemic), for which the IC50 in series [1] came to 112 nM; in series [4] it was 8 nM; in series [5] it was 68 nM. Also, in series [2], the microsomal CLint at 1 µM is > 1250 µL/min/mg.

The IC50 is the concentration at which inhibition is half-maximal. For orientation: solubility means the concentration that dissolves in the medium under given conditions. A low value points to a poorly soluble substance.

The values above are taken from ChEMBL document CHEMBL3864167, “Structure-Activity Relationship, Drug Metabolism and Pharmacokinetics Properties Optimization, and in Vivo Studies of New Brain Penetrant Triple T-Type Calcium Channel Blockers” (J Med Chem, 2016).
